In patent US20250197451A1, “USE OF BIOACTIVE POLYPEPTIDE SYNTHESIZED ON BASIS OF KDM2B SEQUENCE IN NEURAL DIFFERENTIATION AND REGENERATION AND REPAIR OF MESENCHYMAL STEM CELLS” (CAPITAL MEDICAL UNIVERSITY SCHOOL OF STOMATOLOGY, priority 2021, published 2025):
Values joined by “and” are separate entries in the source; they are usually repeats but may differ in a detail not shown here. Equal entries are not always repeated. Ends that are not written are not given here.

Key:
[1] = system: stem cells from apical papilla (SCAPs); experiment: neural induction in vitro: neurosphere formation with βIII-TUBULIN / NESTIN immunofluorescence staining; type: cell-based, human
Source text: […]

KDM2B = experiment: real-time fluorescence reverse transcription quantitative PCR, KDM2B/GAPDH in SCAPs; type: cell-based, human
Experimental: The plasmid was constructed according to standard methods. The complementary shRNA sequence targeting KDM2B gene was cloned into the viral vector pLKO.1 plasmid, sequenced and identified to complete the construction of the KDM2B shRNA plasmid. After PCR primers were designed for the full-length sequence of the KDM2B gene, the full-length sequence of the KDM2B gene was obtained by amplification, and the HA Tag was added. The tagged full-length KDM2B gene was ligated with the pQCXIN retroviral expression vector, sequenced and identified to obtain the plasmid containing the HA tagged full-length KDM2B gene. The virus packaging was carried out, and the resulting virus was collected, and the virus titer was measured. The virus was aliquoted and stored in the refrigerator at −80° C. The virus at a titer of 10-7 was incubated with stem cells from apical papillae in the presence of polybrene for 48 hours for infection, and the antibiotic was used to screen the infected cells. The sequence of the complementary shRNA targeting the KDM2B gene was represented as KDM2Bsh, with a nucleic acid sequence of 5′-[…]-3′ (SEQ ID NO: 287).

EZH2 protein = EZH2 protein (Homo sapiens, UniProt Q15910); experiment: KDM2B polypeptide microarray immune-hybridization with biotin-labelled EZH2 protein; type: binding; conditions: for Intensity (%) (gray intensity of colored points on the KDM2B polypeptide microarray): biotin-labelled EZH2 1 μg/ml, highest optical density set to 100%, some points noise/spike; for binding site of KDM2B to EZH2 (positive / negative): polypeptide microarray
Source text: […]

[2] = system: rat model of spinal cord injury (complete transection site T10 spinal cord); experiment: rat model of spinal cord injury, local injection of peptide alone (BBB score, gross appearance); type: in vivo; conditions: SCI + peptide alone, 10 μg/ml in 30 μl weekly local injection, individual rats
Experimental: 10 μg/ml of peptide 46-47 in a total of 30 μl was weekly injected into 10-week-old rats at the complete transection site T10 spinal cord (5 individual rats per group).

[3] = system: rat model of spinal cord injury (completely transected T10 spinal cord); experiment: rat model of spinal cord injury, transplantation of stem cells from apical papilla (BBB score, gross appearance); type: in vivo; conditions: SCI + SCAPs pre-treated with 10 μg/ml peptide 24 hours, individual rats
Source text: […]

[4] = virally transfected SCAPs (overexpression or knockdown), Day 9, individual samples
[5] = SCAPs + 10 μg/ml peptide, Day 9 of induction, individual samples
[6] = SCAPs + 10 μg/ml peptide, Day 9 of induction, mean of 5 samples

Chain of EZH2 protein (Q15910 whole entry, species assumed): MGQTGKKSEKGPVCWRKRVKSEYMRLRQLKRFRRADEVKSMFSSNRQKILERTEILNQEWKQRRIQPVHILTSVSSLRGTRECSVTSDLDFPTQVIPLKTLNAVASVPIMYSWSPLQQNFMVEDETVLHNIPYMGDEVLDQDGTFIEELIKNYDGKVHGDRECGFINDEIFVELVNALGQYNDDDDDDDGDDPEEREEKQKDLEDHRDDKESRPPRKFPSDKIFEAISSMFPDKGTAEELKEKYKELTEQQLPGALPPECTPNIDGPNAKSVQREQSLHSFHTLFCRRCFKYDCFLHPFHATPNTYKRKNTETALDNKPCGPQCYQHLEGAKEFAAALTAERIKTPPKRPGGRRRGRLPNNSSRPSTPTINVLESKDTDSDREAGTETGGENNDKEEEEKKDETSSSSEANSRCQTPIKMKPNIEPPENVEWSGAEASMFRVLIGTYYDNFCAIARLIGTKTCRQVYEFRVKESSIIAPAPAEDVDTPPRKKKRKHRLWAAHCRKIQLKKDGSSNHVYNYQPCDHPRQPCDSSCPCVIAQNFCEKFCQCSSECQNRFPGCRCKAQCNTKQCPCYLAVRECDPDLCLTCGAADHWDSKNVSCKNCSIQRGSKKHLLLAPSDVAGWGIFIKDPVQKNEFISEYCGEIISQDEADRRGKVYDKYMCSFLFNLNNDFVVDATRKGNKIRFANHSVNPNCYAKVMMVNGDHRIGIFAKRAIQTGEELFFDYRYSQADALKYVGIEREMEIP

5′-ATTTTGACGGGGTGGATAATCTG-3′ (expressed or natural sequence) [KDM2Bsh, complementary shRNA targeting the KDM2B gene, cloned into viral vector pLKO.1, reference compound]
Number of NESTIN-positive neurospheres [1, 4]: 5 and 4 and 2 (2×) and 3 | Number of βIII-TUBULI-positive neurospheres [1, 4]: 4 (2×) and 2 and 6 and 3 | Number of βIII-TUBULI-positive neurospheres, Means ([1]; virally transfected SCAPs (overexpression or knockdown), Day 9, mean of 5 samples, Vector 9, Scramsh 9): 3.8 | Number of NESTIN-positive neurospheres, Means ([1]; virally transfected SCAPs (overexpression or knockdown), Day 9, mean of 5 samples, Vector 11, Scramsh 8.2): 3.2 | Expression of KDM2B/GAPDH in KDM2B-knockdown SCAPs (fold) (KDM2B; individual samples): 0.34 fold and 0.31 fold and 0.28 fold | Expression of KDM2B/GAPDH in KDM2B-knockdown SCAPs (fold), Means (KDM2B; mean of 3 samples, Scramsh 1.0003): 0.3067 fold

A V G T T T R D S L T E I N L (AVGTTTRDSLTEINL; synthesized KDM2B peptide) [compound 253]
Intensity (%) (gray intensity of colored points on the KDM2B polypeptide microarray) (EZH2 protein): 70.41%

C I M R Q C I A P V L P H T A (CIMRQCIAPVLPHTA; synthesized KDM2B peptide) [compound 130]
Intensity (%) (gray intensity of colored points on the KDM2B polypeptide microarray) (EZH2 protein): 30.8%

ConPP: control polypeptide synthesized from the negative binding sites (peptide 83-84) of KDM2B, with cell-penetrating peptide and FITC label (EEEACDQQPQEEEEKDEEGE; also: cell-penetrating peptide and FITC label, sites not given here)
BBB score of hind limb motor function ([2]; 1 w): 6 (3×) and 5 (2×) | BBB score of hind limb motor function ([2]; 2 w): 7 (2×) and 6 (2×) and 8 | BBB score of hind limb motor function ([2]; 3 w): 9 (3×) and 10 and 8 | BBB score of hind limb motor function ([2]; 4 w): 12 (2×) and 11 (3×) | BBB score of hind limb motor function [2]: 4 (3×) and 5 (2×) | BBB score of hind limb motor function ([3]; 0 w): 5 and 4 (4×) | BBB score of hind limb motor function ([3]; 1 w): 5 (3×) and 6 (2×) | BBB score of hind limb motor function ([3]; 2 w): 6 (2×) and 7 (3×) | BBB score of hind limb motor function ([3]; 3 w): 8 (3×) and 9 (2×) | BBB score of hind limb motor function ([3]; 4 w): 10 (2×) and 11 and 12 and 13 | Number of NESTIN-positive neurosphers [1, 5]: 3 (2×) and 4 (2×) and 6 | Number of βIII-TUBULIN-positive neurosphers [1, 5]: 8 (2×) and 6 (2×) and 7 | Number of NESTIN-positive neurosphers, Means [1, 6]: 4 | Number of βIII-TUBULIN-positive neurosphers, Means [1, 6]: 7

D Q Q P Q E E E E K D E E G E (DQQPQEEEEKDEEGE; synthesized KDM2B peptide) [peptide 84]
binding site of KDM2B to EZH2 (positive / negative) (EZH2 protein): negative

E E E A C D Q Q P Q E E E E K (EEEACDQQPQEEEEK; synthesized KDM2B peptide) [peptide 83]
binding site of KDM2B to EZH2 (positive / negative) (EZH2 protein): negative

G K Q S D I F L G D R V E R C (GKQSDIFLGDRVERC; synthesized KDM2B peptide) [compound 57]
Intensity (%) (gray intensity of colored points on the KDM2B polypeptide microarray) (EZH2 protein): 39.95%

I Y E I E D R T R V Q P K F R (IYEIEDRTRVQPKFR; synthesized KDM2B peptide) [compound 69]
Intensity (%) (gray intensity of colored points on the KDM2B polypeptide microarray) (EZH2 protein): 0.15%

L A V D Y P K T P T G S P A T (LAVDYPKTPTGSPAT; synthesized KDM2B peptide) [compound 98]
Intensity (%) (gray intensity of colored points on the KDM2B polypeptide microarray) (EZH2 protein): 0.77%

Q P K F R Y P F Y Y E M C W Y (QPKFRYPFYYEMCWY; synthesized KDM2B peptide) [compound 71]
Intensity (%) (gray intensity of colored points on the KDM2B polypeptide microarray) (EZH2 protein): 0.57%

T E I N L S D C N K V T D Q C (TEINLSDCNKVTDQC; synthesized KDM2B peptide) [compound 255]
Intensity (%) (gray intensity of colored points on the KDM2B polypeptide microarray) (EZH2 protein): 100%

T R D S L T E I N L S D C N K (TRDSLTEINLSDCNK; synthesized KDM2B peptide) [compound 254]
Intensity (%) (gray intensity of colored points on the KDM2B polypeptide microarray) (EZH2 protein): 100%

V L E R Y V Y C V T Q R S H L (VLERYVYCVTQRSHL; synthesized KDM2B peptide) [compound 74]
Intensity (%) (gray intensity of colored points on the KDM2B polypeptide microarray) (EZH2 protein): 0.25%
